From ChEMBL document CHEMBL1909046, “DrugMatrix in vitro pharmacology data”

Key:
[1] = molecular target: 5-hydroxytryptamine receptor 4 (Cavia porcellus, UniProt O70528); assay type: cell membranes, Dunkin-Hartley, Striatum, Membrane
Cytochrome P450 2C19 [2] = molecular target: T1, Cytochrome P450 2C19 (Homo sapiens, UniProt P33261); details: bti-tn-5b1-4
Androgen receptor [3] = molecular target: T2, Androgen receptor (Rattus norvegicus, UniProt P15207)
T2 sequence (P15207 whole entry): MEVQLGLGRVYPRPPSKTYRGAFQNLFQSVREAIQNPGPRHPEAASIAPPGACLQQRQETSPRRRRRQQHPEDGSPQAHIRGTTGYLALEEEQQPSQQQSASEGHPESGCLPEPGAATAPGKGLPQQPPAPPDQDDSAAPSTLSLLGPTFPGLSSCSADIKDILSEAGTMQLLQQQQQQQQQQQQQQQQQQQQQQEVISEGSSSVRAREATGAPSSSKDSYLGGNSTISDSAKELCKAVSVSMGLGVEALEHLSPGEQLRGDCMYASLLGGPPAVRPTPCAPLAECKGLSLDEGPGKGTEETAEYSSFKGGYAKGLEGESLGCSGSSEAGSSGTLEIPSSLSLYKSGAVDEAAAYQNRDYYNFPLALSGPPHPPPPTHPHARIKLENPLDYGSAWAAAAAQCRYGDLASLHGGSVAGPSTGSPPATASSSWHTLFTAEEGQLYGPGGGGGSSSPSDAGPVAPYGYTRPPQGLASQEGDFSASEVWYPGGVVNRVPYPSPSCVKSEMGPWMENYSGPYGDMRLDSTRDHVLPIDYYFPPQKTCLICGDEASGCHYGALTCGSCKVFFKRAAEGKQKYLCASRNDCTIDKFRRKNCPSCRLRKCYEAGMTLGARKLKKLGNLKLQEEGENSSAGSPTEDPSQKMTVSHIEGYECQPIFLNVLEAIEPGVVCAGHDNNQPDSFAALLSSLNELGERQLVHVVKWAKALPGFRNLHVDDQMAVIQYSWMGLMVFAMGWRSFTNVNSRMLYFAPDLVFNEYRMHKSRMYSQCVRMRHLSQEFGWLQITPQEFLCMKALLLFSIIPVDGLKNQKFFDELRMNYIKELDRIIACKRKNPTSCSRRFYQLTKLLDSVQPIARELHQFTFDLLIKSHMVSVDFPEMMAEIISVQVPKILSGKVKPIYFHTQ

Cytochrome P450 2D6 = Cytochrome P450 2D6 (Homo sapiens, UniProt P10635)
Cytochrome P450 1A2 = molecular target: T3, Cytochrome P450 1A2 (Homo sapiens, UniProt P05177)
T3 sequence (P05177 whole entry): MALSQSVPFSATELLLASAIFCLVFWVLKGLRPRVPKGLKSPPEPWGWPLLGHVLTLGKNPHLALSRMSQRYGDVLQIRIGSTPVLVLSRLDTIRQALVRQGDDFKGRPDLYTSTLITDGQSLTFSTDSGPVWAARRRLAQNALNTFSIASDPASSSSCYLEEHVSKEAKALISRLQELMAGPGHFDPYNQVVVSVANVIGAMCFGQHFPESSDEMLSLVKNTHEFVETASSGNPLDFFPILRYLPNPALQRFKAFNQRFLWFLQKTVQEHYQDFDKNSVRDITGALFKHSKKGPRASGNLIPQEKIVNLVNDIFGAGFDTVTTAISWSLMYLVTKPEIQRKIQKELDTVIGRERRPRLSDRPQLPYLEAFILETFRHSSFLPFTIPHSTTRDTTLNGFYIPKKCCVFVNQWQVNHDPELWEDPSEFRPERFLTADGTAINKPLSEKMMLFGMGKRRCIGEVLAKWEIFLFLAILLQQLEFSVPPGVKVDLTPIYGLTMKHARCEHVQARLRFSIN

Cytochrome P450 2C9 = Cytochrome P450 2C9 (Homo sapiens, UniProt P11712)
[4] = molecular target: Voltage-gated inwardly rectifying potassium channel KCNH2 (Homo sapiens, UniProt Q12809)
Cytochrome P450 2C19 [5] = molecular target: T1, Cytochrome P450 2C19
Androgen receptor [6] = molecular target: T2, Androgen receptor; remark: listed apart in the source
Note: in other assays of this panel Not Active means under 50% inhibition at 10 µM.

T1 sequence (P33261 whole entry): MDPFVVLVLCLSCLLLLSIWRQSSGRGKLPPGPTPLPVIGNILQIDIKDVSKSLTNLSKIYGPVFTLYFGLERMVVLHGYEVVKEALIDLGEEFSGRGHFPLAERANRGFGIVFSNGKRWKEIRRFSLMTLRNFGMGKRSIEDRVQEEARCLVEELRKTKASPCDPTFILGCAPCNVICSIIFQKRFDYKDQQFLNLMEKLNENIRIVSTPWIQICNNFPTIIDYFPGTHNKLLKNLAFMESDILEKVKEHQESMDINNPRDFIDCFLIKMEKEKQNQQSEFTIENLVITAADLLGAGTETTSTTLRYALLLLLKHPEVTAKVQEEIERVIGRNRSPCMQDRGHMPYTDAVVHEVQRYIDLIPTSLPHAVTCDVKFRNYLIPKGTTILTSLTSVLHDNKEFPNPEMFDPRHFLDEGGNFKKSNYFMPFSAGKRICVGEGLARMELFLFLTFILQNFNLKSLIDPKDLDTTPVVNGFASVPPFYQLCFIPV
Cytochrome P450 2D6, sequence (P10635 whole entry): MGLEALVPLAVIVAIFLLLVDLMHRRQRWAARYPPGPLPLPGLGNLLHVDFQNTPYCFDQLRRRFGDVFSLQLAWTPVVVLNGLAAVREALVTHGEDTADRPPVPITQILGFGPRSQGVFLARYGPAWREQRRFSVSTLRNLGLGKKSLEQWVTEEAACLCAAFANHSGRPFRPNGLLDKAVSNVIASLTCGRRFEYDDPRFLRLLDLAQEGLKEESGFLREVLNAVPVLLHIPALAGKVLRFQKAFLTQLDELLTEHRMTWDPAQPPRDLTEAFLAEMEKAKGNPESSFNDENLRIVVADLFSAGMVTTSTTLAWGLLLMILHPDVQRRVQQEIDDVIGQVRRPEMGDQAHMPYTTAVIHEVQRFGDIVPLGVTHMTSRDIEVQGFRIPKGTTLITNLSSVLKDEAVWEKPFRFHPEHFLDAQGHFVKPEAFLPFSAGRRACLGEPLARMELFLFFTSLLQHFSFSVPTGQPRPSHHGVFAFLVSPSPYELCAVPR
5-hydroxytryptamine receptor 4, sequence (O70528 whole entry): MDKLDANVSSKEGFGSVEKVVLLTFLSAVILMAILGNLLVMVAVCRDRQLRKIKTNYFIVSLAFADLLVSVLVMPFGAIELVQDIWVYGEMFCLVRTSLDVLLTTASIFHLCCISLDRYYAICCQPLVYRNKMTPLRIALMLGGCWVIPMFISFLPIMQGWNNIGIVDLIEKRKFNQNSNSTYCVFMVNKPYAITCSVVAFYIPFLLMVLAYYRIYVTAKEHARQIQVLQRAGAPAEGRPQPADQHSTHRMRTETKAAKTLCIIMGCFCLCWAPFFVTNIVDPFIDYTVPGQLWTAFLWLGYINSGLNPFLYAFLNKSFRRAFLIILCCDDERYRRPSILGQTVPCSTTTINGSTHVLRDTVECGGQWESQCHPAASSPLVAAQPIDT
Voltage-gated inwardly rectifying potassium channel KCNH2, sequence (Q12809 whole entry): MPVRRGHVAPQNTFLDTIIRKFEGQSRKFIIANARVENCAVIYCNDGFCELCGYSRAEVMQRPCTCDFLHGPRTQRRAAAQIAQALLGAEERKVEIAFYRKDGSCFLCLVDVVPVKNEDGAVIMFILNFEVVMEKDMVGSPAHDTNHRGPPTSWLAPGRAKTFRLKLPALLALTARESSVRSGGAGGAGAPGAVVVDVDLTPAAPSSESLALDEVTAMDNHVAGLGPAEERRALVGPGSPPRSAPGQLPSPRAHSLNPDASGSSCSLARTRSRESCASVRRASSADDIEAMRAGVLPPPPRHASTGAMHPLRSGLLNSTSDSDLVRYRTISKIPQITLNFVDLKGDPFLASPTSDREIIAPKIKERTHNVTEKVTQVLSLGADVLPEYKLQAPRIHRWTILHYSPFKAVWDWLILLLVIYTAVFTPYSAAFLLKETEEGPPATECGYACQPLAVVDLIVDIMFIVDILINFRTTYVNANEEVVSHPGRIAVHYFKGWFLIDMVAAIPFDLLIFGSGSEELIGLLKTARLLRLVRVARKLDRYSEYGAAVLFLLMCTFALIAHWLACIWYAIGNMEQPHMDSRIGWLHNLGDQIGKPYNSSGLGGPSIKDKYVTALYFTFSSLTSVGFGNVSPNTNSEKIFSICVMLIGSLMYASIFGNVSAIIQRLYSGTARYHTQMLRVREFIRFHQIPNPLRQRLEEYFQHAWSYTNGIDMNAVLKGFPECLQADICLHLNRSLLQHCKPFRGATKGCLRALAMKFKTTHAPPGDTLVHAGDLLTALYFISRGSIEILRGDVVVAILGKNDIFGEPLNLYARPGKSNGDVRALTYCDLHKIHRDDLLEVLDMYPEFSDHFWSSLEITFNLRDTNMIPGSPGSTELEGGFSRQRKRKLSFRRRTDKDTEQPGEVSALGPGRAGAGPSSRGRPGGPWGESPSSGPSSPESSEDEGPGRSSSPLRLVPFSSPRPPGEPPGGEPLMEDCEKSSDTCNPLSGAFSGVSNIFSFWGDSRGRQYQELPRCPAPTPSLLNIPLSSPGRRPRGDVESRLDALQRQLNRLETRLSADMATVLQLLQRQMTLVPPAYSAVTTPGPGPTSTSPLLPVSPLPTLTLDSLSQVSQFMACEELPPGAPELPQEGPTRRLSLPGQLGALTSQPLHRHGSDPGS
Cytochrome P450 2C9, sequence (P11712 whole entry): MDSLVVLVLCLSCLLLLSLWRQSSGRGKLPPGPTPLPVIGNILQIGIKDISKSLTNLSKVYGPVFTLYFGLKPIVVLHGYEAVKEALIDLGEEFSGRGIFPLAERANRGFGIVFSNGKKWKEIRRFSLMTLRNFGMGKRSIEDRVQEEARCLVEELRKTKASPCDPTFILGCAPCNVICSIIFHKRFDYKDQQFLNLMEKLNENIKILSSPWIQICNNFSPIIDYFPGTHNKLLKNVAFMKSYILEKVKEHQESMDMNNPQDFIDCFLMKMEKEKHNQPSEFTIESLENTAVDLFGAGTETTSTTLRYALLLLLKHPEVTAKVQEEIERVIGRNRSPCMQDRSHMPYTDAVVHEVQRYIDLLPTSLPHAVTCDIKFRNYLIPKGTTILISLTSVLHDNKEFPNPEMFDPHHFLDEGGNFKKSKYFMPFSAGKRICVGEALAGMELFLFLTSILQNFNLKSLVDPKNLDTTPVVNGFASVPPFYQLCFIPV

| Compound | IC50 [1] | IC50 (Cytochrome P450 2C19 [2]) | Ki (Cytochrome P450 2C19 [2]) | IC50 (Androgen receptor [3]) | further results |
| --- | --- | --- | --- | --- | --- |
| CC(c1cc2ccccc2s1)N(O)C(N)=O (stereo not drawn) [ZILEUTON] | Not Active | Not Active | Not Active | Not Active | – |
| O=C1Nc2ccc(Cl)cc2C(c2ccccc2Cl)=NC1O (stereo not drawn) [LORAZEPAM] | Not Active | Not Active | Not Active | Not Active | – |
| CCN(CC)CCOc1ccc(/C(=C(/Cl)c2ccccc2)c2ccccc2)cc1 [ENCLOMIPHENE] | Not Active | Not Active | Not Active | Not Active | IC50 (Cytochrome P450 2D6): 10000 nM |
| CC(C)Cc1ccc([C@@H](C)C(=O)O)cc1 [(R)-IBUPROPHEN] | Not Active | Not Active | Not Active | – | – |
| O=C(Nc1ccc(Br)cc1)c1cc(Br)cc(Br)c1O [TRIBROMSALAN] | Not Active | Not Active | Not Active | – | IC50 (Cytochrome P450 1A2): 2000 nM; IC50 (Cytochrome P450 2C9): 2000 nM |
| CN(C/C=C/C#CC(C)(C)C)Cc1cccc2ccccc12 [TERBINAFINE] | Not Active | Not Active | Not Active | – | IC50 (Cytochrome P450 2D6): 200 nM |
| Cn1c(=O)c2nc[nH]c2n(C)c1=O.O [THEOPHYLLINE] | Not Active | Not Active | Not Active | – | – |
| CC(C)NCC(O)c1ccc(NS(C)(=O)=O)cc1 (stereo not drawn) [SOTALOL] | Not Active | Not Active | Not Active | – | – |
| CO[C@@H]1[C@@H](OC)[C@H](C)[C@@](O)(CC(=O)O)O[C@H]1[C@H](C)[C@H]1O[C@@]2(CC[C@@](C)([C@H]3CC[C@@](C)([C@@H]4O[C@@H]([C@H]5O[C@](C)(O)[C@H](C)C[C@@H]5C)C[C@@H]4O[C@@H]4C[C@H](OC)[C@@H](OC)[C@H](C)O4)O3)O2)C[C@H](O)[C@H]1C [MADURAMICIN ACID] | Not Active | Not Active | Not Active | – | IC50 (Cytochrome P450 2D6): 1000 nM |
| SODIUM ORTHOVANAD | Not Active | Not Active | Not Active | Not Active | Ki [1]: Not Active; Ki (Androgen receptor [3]): Not Active |
| Cc1cccc(C)c1OCC(C)N (stereo not drawn) [MEXILETINE] | Not Active | Not Active | Not Active | – | – |
| CC(C)NCC(O)c1ccc(O)c(O)c1 (stereo not drawn) [ISOPROTERENOL] | Not Active | Not Active | Not Active | – | – |
| NC1CCN(c2nc3c(cc2F)c(=O)c(C(=O)O)cn3-c2ccc(F)cc2F)C1 (stereo not drawn) [TOSUFLOXACIN] | Not Active | Not Active | Not Active | Not Active | – |
| COc1ccc(CCN(C)CCCC(C#N)(c2ccc(OC)c(OC)c2)C(C)C)cc1OC (stereo not drawn) | Not Active | Not Active | Not Active | – | – |
| CN[C@H]1CC[C@@H](c2ccc(Cl)c(Cl)c2)c2ccccc21 [SERTRALINE] | Not Active | – | – | – | IC50 [4]: 8320 nM; Ki [4]: 6810 nM; IC50 (Cytochrome P450 2C19 [5]): 1000 nM |
| O=C(Oc1ccccc1C(=O)O)c1ccccc1O [SALSALATE] | Not Active | Not Active | Not Active | – | – |
| O=C1C(CC[S+]([O-])c2ccccc2)C(=O)N(c2ccccc2)N1c1ccccc1 (stereo not drawn) [SULFINPYRAZONE] | Not Active | Not Active | Not Active | – | – |
| C[C@H]1C[C@@H]2[C@H]([C@@H](O)C[C@@]3(C)[C@H]2CC[C@]3(O)C(=O)CO)[C@@]2(C)C=CC(=O)C=C12 [METHYLPREDNISOLONE] | Not Active | – | – | – | IC50 (Androgen receptor [6]): 26700 nM; Ki (Androgen receptor [6]): 17800 nM |
| N#Cc1ccc(C(c2ccc(C#N)cc2)n2cncn2)cc1 [LETROZOLE] | Not Active | Not Active | Not Active | Not Active | – |
| Fc1ccc(C(c2ccc(F)cc2)N2CCN(C/C=C/c3ccccc3)CC2)cc1 [FLUNARIZINE] | Not Active | Not Active | Not Active | – | – |
| COc1cc2nc(N3CCN(C(=O)C4CCCO4)CC3)nc(N)c2cc1OC (stereo not drawn) [TERAZOSIN] | Not Active | Not Active | Not Active | – | – |

| Compound | IC50 [1] | IC50 (Cytochrome P450 2C19 [2]) | Ki (Cytochrome P450 2C19 [2]) | IC50 (Androgen receptor [3]) | further results |
| --- | --- | --- | --- | --- | --- |
| O=C(O)c1cn(-c2ccc(F)cc2)c2cc(N3CCNCC3)c(F)cc2c1=O [SARAFLOXACIN] | Not Active | Not Active | Not Active | – | – |
| CO[C@H]1/C=C/O[C@@]2(C)Oc3c(C)c(O)c4c(O)c(c(/C=N/N5CCN(C6CCCC6)CC5)c(O)c4c3C2=O)NC(=O)/C(C)=C\C=C\[C@H](C)[C@H](O)[C@@H](C)[C@@H](O)[C@@H](C)[C@H](OC(C)=O)[C@@H]1C [RIFAPENTINE] | Not Active | Not Active | Not Active | – | – |
| CCCCOc1cc(CC2CNC(=O)N2)ccc1OC (stereo not drawn) [RO-201724] | Not Active | Not Active | Not Active | Not Active | – |
| CC[C@@H](C(=O)[C@@H](C)[C@@H](O)[C@H](C)[C@@H]1O[C@@H]([C@@H](CC)C(=O)O)CC[C@@H]1C)[C@H]1O[C@]2(C=C[C@@H](O)[C@]3(CC[C@@](C)([C@H]4CC[C@](O)(CC)[C@H](C)O4)O3)O2)[C@H](C)C[C@@H]1C [SALINOMYCIN] | Not Active | Not Active | Not Active | – | – |
| CN(C)CCOC(c1ccccc1)c1ccccc1 [DIPHENHYDRAMINE] | Not Active | – | – | Not Active | – |
| CCCCNc1ccc(C(=O)OCCN(C)C)cc1 [TETRACAINE] | Not Active | – | – | – | – |
| CCN(CC)CCNC(=O)c1cc(S(C)(=O)=O)ccc1OC [TIAPRIDE] | Not Active | Not Active | Not Active | – | – |
| MANGANESE CHLORIDE ANHYDROUS | Not Active | Not Active | Not Active | Not Active | Ki [1]: Not Active; Ki (Androgen receptor [3]): Not Active |
| O.O.O.O.O.O.[Cl-].[Cl-].[Sr+2] [STRONTIUM CHLORIDE HEXAHYDRATE] | Not Active | Not Active | Not Active | – | – |
| CNC1(c2ccccc2Cl)CCCCC1=O (stereo not drawn) [KETAMINE] | Not Active | Not Active | Not Active | – | – |
| CCN(CC)CC(=O)Nc1c(C)cccc1C [LIDOCAINE] | Not Active | – | – | Not Active | – |
| Nc1cc(N2CCCCC2)nc(N)[n+]1[O-] [MINOXIDIL] | Not Active | Not Active | Not Active | Not Active | – |
| CNCCC(Oc1ccc(C(F)(F)F)cc1)c1ccccc1 (stereo not drawn) [FLUOXETINE] | Not Active | Not Active | Not Active | – | – |
| COc1c2occc2cc2ccc(=O)oc12 [METHOXSALEN] | Not Active | Not Active | Not Active | Not Active | – |
| Cc1c(C)c2c(c(C)c1O)CCC(C)(CN1CCN(c3cc(N4CCCC4)nc(N4CCCC4)n3)CC1)O2 (stereo not drawn) | Not Active | – | – | Not Active | – |
| CS(=O)(=O)c1ccc([C@@H](O)[C@@H](CO)NC(=O)C(Cl)Cl)cc1 [THIAMPHENICOL] | Not Active | Not Active | Not Active | – | – |
| Cc1ccc(NC(=O)c2ccc(CN3CCN(C)CC3)cc2)cc1Nc1nccc(-c2cccnc2)n1 [IMATINIB] | Not Active | Not Active | Not Active | Not Active | – |
| Clc1ccc(COC(Cn2ccnc2)c2ccc(Cl)cc2Cl)cc1 (stereo not drawn) [ECONAZOLE] | Not Active | – | – | – | IC50 (Cytochrome P450 2C19 [5]): 40 nM; IC50 (Cytochrome P450 1A2): 300 nM; IC50 (Cytochrome P450 2D6): 400 nM |
| Clc1ccccc1CN1CCc2sccc2C1 [TICLOPIDINE] | Not Active | – | – | Not Active | – |
| CC(C)Oc1ccc2c(=O)c(-c3ccccc3)coc2c1 [IPRIFLAVONE] | Not Active | Not Active | Not Active | – | – |
| CCN1CCC[C@H]1CNC(=O)c1cc(S(N)(=O)=O)ccc1OC [LEVOSULPIRIDE] | Not Active | Not Active | Not Active | Not Active | – |
